{"source": "patent US12162840B2", "about": "“Herbicidal compositions” (SYNGENTA PARTICIPATIONS AG, priority 2018, dated 2024)", "test_system": "cool season plant species", "experiment": "B2 Post-emergence efficacy Test 2, cool season plant species", "format": "in vivo", "settings": "15 days after application, 0=no damage, 100=total kill", "experimental": "Seeds of a variety of test species (see Table B1) were sown in standard soil in pots. After cultivation for 12 days (post-emergence) under controlled conditions in a glasshouse (at 24/18° C. or 20/16° C., at day/night; 16 hours light; 65% humidity), the plants were sprayed with an aqueous spray solution derived from the formulation of the technical active ingredient dissolved in IF50 (see Table B2 for composition) and adjuvant (Genapol XO80) was added to the spray solution at a rate of 0.2% v/v. [table] [table] After application, the test plants were grown in a glasshouse under controlled conditions (as above) and watered twice daily. Herbicidal activity was evaluated 15 days after application on a 0-100 scale. The results, where 0=no damage to test plant and 100=total kill of test plant are shown below in Tables 6 to 9."}
{"smiles": "Cc1nn(C)c(=O)c(-c2c(F)ccc(Cl)c2CCc2ccc(C#N)cc2)c1O", "note": "[Compound 1.024]", "values": [{"measurement": "Herbicidal activity (0-100 scale) ALOMY", "setting": "15 g/Ha", "value": 10}, {"measurement": "Herbicidal activity (0-100 scale) ALOMY", "setting": "30 g/Ha", "value": 30}, {"measurement": "Herbicidal activity (0-100 scale) ALOMY", "setting": "60 g/Ha", "value": 50}, {"measurement": "Herbicidal activity (0-100 scale) ALOMY", "setting": "125 g/Ha", "value": 70}, {"measurement": "Herbicidal activity (0-100 scale) ALOMY", "setting": "250 g/Ha", "value": 70}, {"measurement": "Herbicidal activity (0-100 scale) ALOMY", "setting": "500 g/Ha", "value": 70}, {"measurement": "Herbicidal activity (0-100 scale) AVEFA", "setting": "15 g/Ha", "value": 10}, {"measurement": "Herbicidal activity (0-100 scale) AVEFA", "setting": "30 g/Ha", "value": 20}, {"measurement": "Herbicidal activity (0-100 scale) AVEFA", "setting": "60 g/Ha", "value": 30}, {"measurement": "Herbicidal activity (0-100 scale) AVEFA", "setting": "125 g/Ha", "value": 60}, {"measurement": "Herbicidal activity (0-100 scale) AVEFA", "setting": "250 g/Ha", "value": 70}, {"measurement": "Herbicidal activity (0-100 scale) AVEFA", "setting": "500 g/Ha", "value": 80}, {"measurement": "Herbicidal activity (0-100 scale) BEAVA", "setting": "15 g/Ha", "value": 70}, {"measurement": "Herbicidal activity (0-100 scale) BEAVA", "setting": "30 g/Ha", "value": 70}, {"measurement": "Herbicidal activity (0-100 scale) BEAVA", "setting": "60 g/Ha", "value": 80}, {"measurement": "Herbicidal activity (0-100 scale) BEAVA", "setting": "125 g/Ha", "value": 80}, {"measurement": "Herbicidal activity (0-100 scale) BEAVA", "setting": "250 g/Ha", "value": 80}, {"measurement": "Herbicidal activity (0-100 scale) BEAVA", "setting": "500 g/Ha", "value": 100}, {"measurement": "Herbicidal activity (0-100 scale) BROTE", "setting": "15 g/Ha", "value": 0}, {"measurement": "Herbicidal activity (0-100 scale) BROTE", "setting": "30 g/Ha", "value": 0}, {"measurement": "Herbicidal activity (0-100 scale) BROTE", "setting": "60 g/Ha", "value": 10}, {"measurement": "Herbicidal activity (0-100 scale) BROTE", "setting": "125 g/Ha", "value": 20}, {"measurement": "Herbicidal activity (0-100 scale) BROTE", "setting": "250 g/Ha", "value": 40}, {"measurement": "Herbicidal activity (0-100 scale) BROTE", "setting": "500 g/Ha", "value": 70}, {"measurement": "Herbicidal activity (0-100 scale) BRSNN", "setting": "15 g/Ha", "value": 80}, {"measurement": "Herbicidal activity (0-100 scale) BRSNN", "setting": "30 g/Ha", "value": 90}, {"measurement": "Herbicidal activity (0-100 scale) BRSNN", "setting": "60 g/Ha", "value": 90}, {"measurement": "Herbicidal activity (0-100 scale) BRSNN", "setting": "125 g/Ha", "value": 90}, {"measurement": "Herbicidal activity (0-100 scale) BRSNN", "setting": "250 g/Ha", "value": 90}, {"measurement": "Herbicidal activity (0-100 scale) BRSNN", "setting": "500 g/Ha", "value": 90}, {"measurement": "Herbicidal activity (0-100 scale) CHEAL", "setting": "15 g/Ha", "value": 60}, {"measurement": "Herbicidal activity (0-100 scale) CHEAL", "setting": "30 g/Ha", "value": 90}, {"measurement": "Herbicidal activity (0-100 scale) CHEAL", "setting": "60 g/Ha", "value": 90}, {"measurement": "Herbicidal activity (0-100 scale) CHEAL", "setting": "125 g/Ha", "value": 90}, {"measurement": "Herbicidal activity (0-100 scale) CHEAL", "setting": "250 g/Ha", "value": 90}, {"measurement": "Herbicidal activity (0-100 scale) CHEAL", "setting": "500 g/Ha", "value": 100}, {"measurement": "Herbicidal activity (0-100 scale) GALAP", "setting": "30 g/Ha", "value": 20}, {"measurement": "Herbicidal activity (0-100 scale) GALAP", "setting": "60 g/Ha", "value": 20}, {"measurement": "Herbicidal activity (0-100 scale) GALAP", "setting": "125 g/Ha", "value": 60}, {"measurement": "Herbicidal activity (0-100 scale) GALAP", "setting": "250 g/Ha", "value": 90}, {"measurement": "Herbicidal activity (0-100 scale) GALAP", "setting": "500 g/Ha", "value": 90}, {"measurement": "Herbicidal activity (0-100 scale) HORVW", "setting": "15 g/Ha", "value": 0}, {"measurement": "Herbicidal activity (0-100 scale) HORVW", "setting": "30 g/Ha", "value": 10}, {"measurement": "Herbicidal activity (0-100 scale) HORVW", "setting": "60 g/Ha", "value": 10}, {"measurement": "Herbicidal activity (0-100 scale) HORVW", "setting": "125 g/Ha", "value": 10}, {"measurement": "Herbicidal activity (0-100 scale) HORVW", "setting": "250 g/Ha", "value": 10}, {"measurement": "Herbicidal activity (0-100 scale) HORVW", "setting": "500 g/Ha", "value": 20}, {"measurement": "Herbicidal activity (0-100 scale) KCHSC", "setting": "15 g/Ha", "value": 0}, {"measurement": "Herbicidal activity (0-100 scale) KCHSC", "setting": "30 g/Ha", "value": 0}, {"measurement": "Herbicidal activity (0-100 scale) KCHSC", "setting": "60 g/Ha", "value": 0}, {"measurement": "Herbicidal activity (0-100 scale) KCHSC", "setting": "125 g/Ha", "value": 10}, {"measurement": "Herbicidal activity (0-100 scale) KCHSC", "setting": "250 g/Ha", "value": 10}, {"measurement": "Herbicidal activity (0-100 scale) KCHSC", "setting": "500 g/Ha", "value": 20}, {"measurement": "Herbicidal activity (0-100 scale) LOLPE", "setting": "15 g/Ha", "value": 10}, {"measurement": "Herbicidal activity (0-100 scale) LOLPE", "setting": "30 g/Ha", "value": 70}, {"measurement": "Herbicidal activity (0-100 scale) LOLPE", "setting": "60 g/Ha", "value": 70}, {"measurement": "Herbicidal activity (0-100 scale) LOLPE", "setting": "125 g/Ha", "value": 90}, {"measurement": "Herbicidal activity (0-100 scale) LOLPE", "setting": "250 g/Ha", "value": 90}, {"measurement": "Herbicidal activity (0-100 scale) LOLPE", "setting": "500 g/Ha", "value": 90}, {"measurement": "Herbicidal activity (0-100 scale) POAAN", "setting": "15 g/Ha", "value": 10}, {"measurement": "Herbicidal activity (0-100 scale) POAAN", "setting": "30 g/Ha", "value": 20}, {"measurement": "Herbicidal activity (0-100 scale) POAAN", "setting": "60 g/Ha", "value": 30}, {"measurement": "Herbicidal activity (0-100 scale) POAAN", "setting": "125 g/Ha", "value": 80}, {"measurement": "Herbicidal activity (0-100 scale) POAAN", "setting": "250 g/Ha", "value": 80}, {"measurement": "Herbicidal activity (0-100 scale) POAAN", "setting": "500 g/Ha", "value": 90}, {"measurement": "Herbicidal activity (0-100 scale) POLCO", "setting": "15 g/Ha", "value": 80}, {"measurement": "Herbicidal activity (0-100 scale) POLCO", "setting": "60 g/Ha", "value": 90}, {"measurement": "Herbicidal activity (0-100 scale) POLCO", "setting": "125 g/Ha", "value": 90}, {"measurement": "Herbicidal activity (0-100 scale) POLCO", "setting": "250 g/Ha", "value": 90}, {"measurement": "Herbicidal activity (0-100 scale) POLCO", "setting": "500 g/Ha", "value": 100}, {"measurement": "Herbicidal activity (0-100 scale) SINAR", "setting": "15 g/Ha", "value": 80}, {"measurement": "Herbicidal activity (0-100 scale) SINAR", "setting": "30 g/Ha", "value": 80}, {"measurement": "Herbicidal activity (0-100 scale) SINAR", "setting": "60 g/Ha", "value": 80}, {"measurement": "Herbicidal activity (0-100 scale) SINAR", "setting": "250 g/Ha", "value": 90}, {"measurement": "Herbicidal activity (0-100 scale) SINAR", "setting": "500 g/Ha", "value": 100}, {"measurement": "Herbicidal activity (0-100 scale) STEME", "setting": "15 g/Ha", "value": 90}, {"measurement": "Herbicidal activity (0-100 scale) STEME", "setting": "30 g/Ha", "value": 90}, {"measurement": "Herbicidal activity (0-100 scale) STEME", "setting": "60 g/Ha", "value": 90}, {"measurement": "Herbicidal activity (0-100 scale) STEME", "setting": "125 g/Ha", "value": 90}, {"measurement": "Herbicidal activity (0-100 scale) STEME", "setting": "250 g/Ha", "value": 90}, {"measurement": "Herbicidal activity (0-100 scale) STEME", "setting": "500 g/Ha", "value": 100}, {"measurement": "Herbicidal activity (0-100 scale) TRZAW", "setting": "15 g/Ha", "value": 0}, {"measurement": "Herbicidal activity (0-100 scale) TRZAW", "setting": "30 g/Ha", "value": 0}, {"measurement": "Herbicidal activity (0-100 scale) TRZAW", "setting": "60 g/Ha", "value": 20}, {"measurement": "Herbicidal activity (0-100 scale) TRZAW", "setting": "125 g/Ha", "value": 30}, {"measurement": "Herbicidal activity (0-100 scale) TRZAW", "setting": "250 g/Ha", "value": 60}, {"measurement": "Herbicidal activity (0-100 scale) TRZAW", "setting": "500 g/Ha", "value": 70}, {"measurement": "Herbicidal activity (0-100 scale) VERPE", "setting": "15 g/Ha", "value": 80}, {"measurement": "Herbicidal activity (0-100 scale) VERPE", "setting": "30 g/Ha", "value": 80}, {"measurement": "Herbicidal activity (0-100 scale) VERPE", "setting": "60 g/Ha", "value": 90}, {"measurement": "Herbicidal activity (0-100 scale) VERPE", "setting": "125 g/Ha", "value": 80}, {"measurement": "Herbicidal activity (0-100 scale) VERPE", "setting": "250 g/Ha", "value": 100}, {"measurement": "Herbicidal activity (0-100 scale) VERPE", "setting": "500 g/Ha", "value": 100}]}
